Test results reported in ChEMBL document CHEMBL1143917, “Improved synthesis of histone deacetylase inhibitors (HDIs) (MS-275 and CI-994) and inhibitory effects of HDIs alone or in combination with RAMBAs or retinoids on growth of human LNCaP prostate cancer cells and tumor xenografts” (Bioorg Med Chem, 2008).

Tests used:
[1] = system: LNCaP; experiment: Cell cycle arrest in human LNCap cells assessed as accumulation at G1 phase relative to control at 5 uM; assay type: functional
[2] = system: LNCaP; experiment: Antitumor activity against human LNCap cells xenografted SCID mouse model at 10 to 20 mg/kg/day, sc relative to control; assay type: functional; details: route subcutaneous
[3] = system: LNCaP; experiment: Cell cycle arrest in human LNCap cells assessed as accumulation at S phase relative to control at 5 uM; assay type: functional
[4] = system: LNCaP; experiment: Cell cycle arrest in human LNCap cells assessed as accumulation at G2/M phase relative to control at 5 uM; assay type: functional
[5] = system: LNCaP; experiment: Cell cycle arrest in human LNCap cells assessed as accumulation at G2/M phase relative to control at 1 uM; assay type: functional
[6] = system: LNCaP; experiment: Cell cycle arrest in human LNCap cells assessed as accumulation at G1 phase relative to control at 1 uM; assay type: functional
[7] = system: LNCaP; experiment: Cell cycle arrest in human LNCap cells assessed as accumulation at S phase relative to control at 1 uM; assay type: functional
[8] = system: LNCaP; experiment: Antitumor activity against human LNCap cells xenografted SCID mouse model at 20 to 10 mg/kg/day, sc relative to control; assay type: functional; details: route subcutaneous
[9] = system: LNCaP; experiment: Antiproliferative activity against human LNCap by MTT assay; assay type: functional, cell-based

Structure (SMILES): CC1=C(/C=C/C(C)=C/C=C/C(C)=C/C(=O)Nc2ccc(O)cc2)C(C)(C)CCC1n1ccnc1 (stereo not given)
- Activity [1]: 89.14%
- Activity [2]: 81.6%
- Activity [3]: 10.86%
- Activity [4]: 0%

Structure (SMILES): O=C(CCCCCCC(=O)Nc1ccccc1)NO [VORINOSTAT]
- Activity [5]: 0%
- Activity [6]: 81.9%
- Activity [7]: 18.1%
- Activity [8]: 97.1%

Structure (SMILES): Nc1ccccc1NC(=O)c1ccc(CNC(=O)OCc2cccnc2)cc1 [ENTINOSTAT]
- IC50 [9]: 0.36 µM

Structure (SMILES): CC(=O)Nc1ccc(C(=O)Nc2ccccc2N)cc1 [TACEDINALINE]
- IC50 [9]: 7.4 µM
